One test relates to NAMALVA. Briefly: Cytotoxicity against human NAMALWA cells assessed as decrease in cell viability incubated for 72 hrs by CellTiter-Glo assay. It is filed as functional, cell-based. For orientation: ATP-based viability assays read luminescence as a measure of living cells.
A further test relates to NCI-H1975. Nature of the test: Cytotoxicity against human NCI-H1975 cells assessed as decrease in cell viability incubated for 72 hrs by CellTiter-Glo assay. It is filed as functional, cell-based. Particulars: NCI-H1975, 72 h; call rule not given here.
The next test relates to Lymphoma cell line. Briefly: Cytotoxicity against mouse E-mu-Myc lymphoma cells assessed as decrease in cell viability incubated for 72 hrs by CellTiter-Glo assay. It counts as functional, cell-based.
Test [1] has as its target T1, Myc proto-oncogene protein (Homo sapiens, UniProt P01106). Briefly: Inhibition of Myc (unknown origin) expressed in HEK293T cells incubated for 16 hrs by firefly/renilla luciferase reporter gene assay. It is filed as cell-based. A general note: In a reporter assay the amount or activity of a reporter protein is the signal.
Another test has as its system HeLa. Briefly: Cytotoxicity against human HeLa cells assessed as decrease in cell viability incubated for 72 hrs by CellTiter-Glo assay. It counts as functional, cell-based.
Test [2] in a line: Cytotoxicity against human SNUC5 cells assessed as decrease in cell viability incubated for 72 hrs by CellTiter-Glo assay. It counts as functional, cell-based.
Test [3] deals with T1, Myc proto-oncogene protein. Briefly: Binding affinity to Myc in cell lysates (unknown origin) assessed as c-Myc levels at 5 uM incubated using compound 55 beads by Western blotting based pull down assay relative to control. It is filed as subcellular. Particulars: Lysate. (In western blotting, separated proteins are transferred to a membrane and probed.)
The target of test [4] is T1, Myc proto-oncogene protein. Briefly: Binding affinity to Myc in cell lysates (unknown origin) assessed as c-Myc levels at 5 uM incubated using compound 19 beads by Western blotting based pull down assay relative to control. It is filed as subcellular. The settings on record: Lysate.
The target of test [5] is T1, Myc proto-oncogene protein. Briefly: Binding affinity to Myc in cell lysates (unknown origin) assessed as c-Myc levels at 1 uM incubated using compound 19 beads by Western blotting based pull down assay relative to control. It counts as subcellular. The settings on record: Lysate.
The nature of test [6]: Cytotoxicity against human KLP1 cells assessed as decrease in cell viability incubated for 72 hrs by CellTiter-Glo assay. It is filed as functional, cell-based.

Molecules are shown by their SMILES.

Usually IC50 stands for the midpoint of a concentration-inhibition curve.

T1 sequence (P01106 whole entry): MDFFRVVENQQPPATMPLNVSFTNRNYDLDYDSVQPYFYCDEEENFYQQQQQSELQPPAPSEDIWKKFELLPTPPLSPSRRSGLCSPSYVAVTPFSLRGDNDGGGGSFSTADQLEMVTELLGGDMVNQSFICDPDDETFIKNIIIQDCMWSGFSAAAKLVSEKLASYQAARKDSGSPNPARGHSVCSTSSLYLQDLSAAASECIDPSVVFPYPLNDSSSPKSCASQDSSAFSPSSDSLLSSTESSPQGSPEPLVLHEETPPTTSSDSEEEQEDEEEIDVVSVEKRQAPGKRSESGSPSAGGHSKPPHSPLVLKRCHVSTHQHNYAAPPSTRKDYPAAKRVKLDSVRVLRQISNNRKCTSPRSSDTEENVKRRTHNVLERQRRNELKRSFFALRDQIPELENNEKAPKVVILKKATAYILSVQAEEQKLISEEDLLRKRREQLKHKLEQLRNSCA

Consider `CC(C)N1C(=O)S/C(=C\c2ccc(-c3nc4ccccc4[nH]3)o2)C1=O`, for which the concentration for half-maximal inhibition (IC50) in the test on NAMALVA is 20.1 µM; in the test on NCI-H1975, 45.3 µM; in the test on Lymphoma cell line it was over 50 µM.

As to `COC(=O)c1ccc(Sc2nc3ccccc3[nH]2)o1`, the IC50 result in test [1] was “Not Active”.

As to `O=C(CCCC[C@@H]1SC[C@@H]2NC(=O)N[C@@H]21)NCCCN1C(=O)S/C(=C\c2ccc(Sc3nc4ccccc4[nH]3)o2)C1=O`, in the test with NCI-H1975, the IC50 is over 50 µM.

For the compound `CC(C)N1C(=O)S/C(=C\c2ccc(Sc3nc4ccccc4[nH]3)o2)C1=O`, the half-inhibitory concentration (IC50) is 3.32 µM in the test on HeLa; 11.7 µM in test [2]; 17.3 to 21.1 µM in the test with NAMALVA; 2.71 to 24.9 µM in the test with NCI-H1975; 4.64 µM in test [6]. In addition, the results for the Activity in test [3], in test [4] and in test [5] were 52%, 73 to 84% and 91%, respectively.

For `O=C1NC(=O)C(=Cc2ccc(Sc3nc4ccccc4[nH]3)o2)C(=O)N1`, in [1], the IC50 entry is on record as “Not Active”.

Turning to `O=C(O)CN1C(=O)S/C(=C\c2ccc(Sc3nc4ccccc4[nH]3)o2)C1=O`, the IC50 result in test [1] is “Not Active”.

On to `O=C(c1ccc(Sc2nc3ccccc3[nH]2)o1)N1CCOCC1`, for which the IC50 result in [1] was “Not Active”.

Turning to `O=C(O)c1ccc(Sc2nc3ccccc3[nH]2)o1`, in test [1], the IC50 result was “Not Active”.

(Values after ChEMBL document CHEMBL4418492, “Myc modulators and uses thereof” (2018).)
